Results on 2 compounds are retold here after patent publication US20190269752A1, “Methods for the Prevention or Treatment of Epilepsy” (Duke University, priority 2018, published 2019).

The structures appear in SMILES notation.

In assay [1] the test system is epileptic animals (KA-SE). Put plainly: Spontaneous recurrent seizures (video-EEG) after kainic acid-induced status epilepticus (KA-SE model of TLE). Format: in vivo, mice. Particulars: six animals; for SRS during two weeks following cessation of treatment: after carbamazepine 800 mg/kg/day in food pellets for two weeks; for SRS during two weeks on treatment: carbamazepine 800 mg/kg/day in food pellets for two weeks. The text has this: Determining whether pY816 may be beneficial in epileptic animals required modification of our study of the kainic acid (KA)-status epilepticus (SE) model. To more closely mimic the clinical scenario in which patients seek medical attention for established TLE, we induced KA-SE and then conducted video-EEG recordings to detect spontaneous recurrent seizures during baseline periods of two to four weeks until they developed TLE prior to treating with pY816 peptide. In contrast to just three days of treatment with pY816 deployed in previous studies, we sought a more prolonged treatment with pY816 for the current experiments, namely two weeks. The intravenous route of administration used for three days in the prior studies was not feasible for two weeks, leading us to ask whether treatment via intraperitoneal route could inhibit activation of PLCγ1. We used the phosphorylation of residue Y783 of PLCγ1 detected on western blot of brain lysates as a surrogate measure of PLCγ1 activation.
Having verified that intraperitoneal administration of pY816 inhibited PLCγ1 activation, we then asked whether treatment with pY816 initiated after onset of epilepsy and continued for two weeks would reduce the severity of epilepsy or even induce a remission. Towards that end, we induced KA-SE but then followed the animals for several weeks until they developed TLE as assessed by detection of SRS in continuous video-EEG recordings. We quantified the number of SRS in each animal by blinded review of video-EEG recordings during three distinct two week epochs (FIG. 8): a) baseline; b) treatment with pY816 (n=9) or Scr control (n=6), 20 mg/kg IP twice daily for two weeks (on Tx); c) following termination of treatment (Post Tx). As noted in FIG. 8, following induction of status epilepticus induced by infusion of kainic acid into amygdala (Gu et al 2015) animals underwent continuous video-EEG recording to detect spontaneous recurrent seizures. Following baseline recording of two weeks, animals were treated with either pY816 or Scr control peptide (20 mg/kg) twice daily for two weeks (Day 15-28). Video-EEG recording continued for two weeks following termination of treatment (Post-treatment).
Results are shown in FIG. 9, where each symbol represents the number of seizures experienced by a given animal during Baseline, Treatment (Tx), or Post-treatment (Post Tx) periods. Horizontal bars designate median. Treatment (Tx) consisted of either pY816 or Scr control given 20 mg/kg twice daily for two weeks. Note that seizure detection was performed by analyses of video-EEG recordings by two blinded investigators.
Antiseizure drugs in current clinical use provide symptomatic relief of seizures in many but not all patients, but seizures typically recur upon cessation of the drug. To verify that similar findings occur in our animal model, we tested the effect of an antiseizure drug in current clinical use in our model (carbamazepine). We infused additional animals with KA and assessed the occurrence of SRS with continuous video-EEG monitoring for several weeks. […] Thus, like TLE in humans, continuous treatment with an antiseizure drug suppresses seizures, yet seizures recur upon discontinuation of treatment.

The next assay relates to kindled mice. Nature of the assay: Kindling model, carbamazepine treatment after an evoked seizure. Format: in vivo. The settings on record: carbamazepine 20 mg/kg IP at four hour intervals for two days following Post-Kindling Seizure #1. The protocol:
(§1) Experiments were performed as previously described (He et al. 2010, He et al. 2014). A bipolar stimulating and recording electrode was inserted into the right amygdala (1.0 mm posterior, 2.9 mm lateral to bregma; 4.6 mm below dura). A skull screw was placed over the left frontal lobe as a ground electrode. After a postoperative recovery period of at least 5 days, animals were connected to a Grass Stimulator and monitored by both video and EEG. The current required to evoke an electrographic seizure (electrographic seizure threshold [EST]) was determined by applying a 1 s train of 1 msec biphasic-rectangular pulses at 60 Hz beginning at 20 μA. Additional stimulations were given in 20 μA increments at 1 min intervals until an electrographic seizure was detected. Animals then received two stimulations per day at the EST, with the behavioral seizure scores classified according to a modification of the Racine scale for mice (Borges et al., 2003; Racine, 1972): 0, normal activity; 1, arrest and rigid posture; 2, head nodding; 3, unilateral forelimb clonus; 4, rearing with bilateral forelimbs clonus; 5, rearing and falling; 6, tonic-clonic seizures with violent running and/or jumping. The criterion for “kindled” was the occurrence of three consecutive seizures of class 4 or greater, with limb clonus/tonus lasting at least 12 s.
(§2) Design of individual experiments is presented in panel A of FIGS. 1-5. All “post-kindling seizures” (see FIG. 1A) were evoked with a stimulation intensity determined by assessing the EST a second time, typically 6 days after evoking the “final kindled seizure” the EST was determined by administering stimulations in 20 μA increments every 1 min, beginning at 20 μA, until an electrographic seizure was evoked.
Carbamazepine (Sigma) was dissolved in a solubilization buffer of 2% Tween-80 and 70% propylene glycol at a concentration of 2 mg/mL and administered at a dose of 20 mg/kg, a dose of carbamazepine sufficient to produce therapeutic blood levels (Grabenstatter et al. 2007). Treatments were given every 4 h for two days. […]

In the next assay the target is T1, TrkB kinase (Mus musculus, UniProt P15209).
T1 construct: host or cells: wild type (C57/bl6) mice, endogenous TrkB
Particulars: WT mice (Chen et al. 2005, Liu et al. 2013); cited from earlier work.

The test system of assay [2] is kindled TrkB^F616A mice. Put plainly: Kindling model, 1NMPP1 treatment initiated after an evoked seizure (chemical-genetic inhibition of TrkB kinase). Format: in vivo. The text has this:
All animal procedures were approved by the Institutional Animal Care and Use Committee (IACUC) at Duke University and conform to the National Institutes of Health and Duke University institutional guidelines for the care and use of experimental animals. Animals were maintained on a 12-hour light/dark cycle with food and water available ad libitum. Wild type (WT) adult (8-12 wk) C57/bl6 male mice were obtained from Charles River. TrkB^F616A mice were originally obtained from Dr. David Ginty (Chen et al. 2005) and backcrossed to the C57/bl6 line for at least seven generations. This knockin mouse harbors a point mutation on the TrkB allele, substituting an alanine for phenylalanine within the ATP binding pocket of the TrkB kinase domain. This mutation renders TrkB protein uniquely susceptible to kinase inhibition by small molecule derivatives of the general kinase inhibitor PP1, including 1-(1,1-dimethylethyl)-3-(1-naphthalenylmethyl)-1H-pyrazolo[3,4-d]pyrimidin-4-amine (1NMPP1). […] Both male and female adult (8-12 wk) homozygous mice were used.
(§3) Video and EEG recordings were analyzed by a blinded, trained observer who quantified behavioral seizure class and duration of both electrographic and behavioral seizure.
Experiments were performed as previously described (He et al. 2010, He et al. 2014). A bipolar stimulating and recording electrode was inserted into the right amygdala (1.0 mm posterior, 2.9 mm lateral to bregma; 4.6 mm below dura). A skull screw was placed over the left frontal lobe as a ground electrode. After a postoperative recovery period of at least 5 days, animals were connected to a Grass Stimulator and monitored by both video and EEG. The current required to evoke an electrographic seizure (electrographic seizure threshold [EST]) was determined by applying a 1 s train of 1 msec biphasic-rectangular pulses at 60 Hz beginning at 20 μA. Additional stimulations were given in 20 μA increments at 1 min intervals until an electrographic seizure was detected. […]
Design of individual experiments is presented in panel A of FIGS. 1-5. All “post-kindling seizures” (see FIG. 1A) were evoked with a stimulation intensity determined by assessing the EST a second time, typically 6 days after evoking the “final kindled seizure” the EST was determined by administering stimulations in 20 μA increments every 1 min, beginning at 20 μA, until an electrographic seizure was evoked. […]

The subject of the next assay is kindled WT mice. Nature of the assay: Kindling model, treatment initiated after an evoked seizure in wild type mice. Format: in vivo. Particulars: 1NMPP1 treatment of WT animals (n=9) following Post-Kindling Seizure #1, p<0.01.
Description: All animal procedures were approved by the Institutional Animal Care and Use Committee (IACUC) at Duke University and conform to the National Institutes of Health and Duke University institutional guidelines for the care and use of experimental animals. Animals were maintained on a 12-hour light/dark cycle with food and water available ad libitum. Wild type (WT) adult (8-12 wk) C57/bl6 male mice were obtained from Charles River. TrkB^F616A mice were originally obtained from Dr. David Ginty (Chen et al. 2005) and backcrossed to the C57/bl6 line for at least seven generations. […]
as §3
Experiments were performed as previously described (He et al. 2010, He et al. 2014). […] After a postoperative recovery period of at least 5 days, animals were connected to a Grass Stimulator and monitored by both video and EEG. The current required to evoke an electrographic seizure (electrographic seizure threshold [EST]) was determined by applying a 1 s train of 1 msec biphasic-rectangular pulses at 60 Hz beginning at 20 μA. Additional stimulations were given in 20 μA increments at 1 min intervals until an electrographic seizure was detected. […]

Assay [3] relates to kindled TrkB^F616A mice. Nature of the assay: Kindling model, 1NMPP1 treatment in the absence of a preceding evoked seizure. Particulars: no preceding evoked seizure, seizure evoked six days after cessation. Format: in vivo. The protocol: as §1, §2
Prior to each administration, stock 100 mM 1NMPP1 was dissolved in a solubilization buffer containing 0.9% NaCL and 2.5% Tween-20 to a concentration of 1.67 mg/mL and dosed at 16.6 ug/g IP every 12 h for a total of five treatments. Vehicle injection served as a control. […]

T1 sequence (P15209 32-821): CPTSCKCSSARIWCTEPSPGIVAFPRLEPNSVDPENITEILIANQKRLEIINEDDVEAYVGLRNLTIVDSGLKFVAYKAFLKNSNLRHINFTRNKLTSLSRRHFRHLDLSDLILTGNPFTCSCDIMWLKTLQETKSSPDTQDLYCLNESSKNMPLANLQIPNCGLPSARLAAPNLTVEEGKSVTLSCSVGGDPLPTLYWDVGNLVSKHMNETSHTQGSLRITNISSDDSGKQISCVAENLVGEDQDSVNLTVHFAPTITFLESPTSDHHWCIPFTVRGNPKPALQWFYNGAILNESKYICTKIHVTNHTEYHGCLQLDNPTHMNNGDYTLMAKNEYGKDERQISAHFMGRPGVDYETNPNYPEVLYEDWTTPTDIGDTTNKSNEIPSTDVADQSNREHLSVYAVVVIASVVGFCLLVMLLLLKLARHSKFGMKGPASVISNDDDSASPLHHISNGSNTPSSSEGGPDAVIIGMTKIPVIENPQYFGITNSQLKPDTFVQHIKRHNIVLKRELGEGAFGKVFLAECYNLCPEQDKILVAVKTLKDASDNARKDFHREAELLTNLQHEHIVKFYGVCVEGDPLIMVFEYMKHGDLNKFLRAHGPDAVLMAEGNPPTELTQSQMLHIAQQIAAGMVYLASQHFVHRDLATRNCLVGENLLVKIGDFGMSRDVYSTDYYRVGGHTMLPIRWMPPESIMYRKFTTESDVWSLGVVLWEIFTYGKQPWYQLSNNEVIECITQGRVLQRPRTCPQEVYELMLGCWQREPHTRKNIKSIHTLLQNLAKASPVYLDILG

Take `NC(=O)N1c2ccccc2C=Cc2ccccc21` [carbamazepine, Carbamazepine]: in assay [1], the “SRS during two weeks following cessation of treatment” value is listed as “seizures recurred in each animal” and the “SRS during two weeks on treatment” value is reported as “reduced in each of the six animals”. Moreover, in assay [1] (listed as Carbamazepine), the “SRS during two weeks following cessation of treatment” value is “seizures recurred following cessation of treatment in each of the six animals” and the “SRS during two weeks on treatment” value is listed as “effectively suppressed SRS in all but one animal”. In the assay on kindled mice, the “Duration of behavioral seizure, Post-Kindling Sz #2, versus vehicle” value is “No differences were detected” and the “Seizure class, Post-Kindling Sz #2, versus vehicle” value is given as “No differences were detected”. Further, the “Duration of electrographic seizure, Post-Kindling Sz #2, versus vehicle” value in the assay on kindled mice (Sz #2 evoked fourteen days after last dose) is “No differences were detected”.

With `CC(C)(C)n1nc(Cc2cccc3ccccc23)c2c(N)ncnc21` [1NMPP1, 1-(1,1-dimethylethyl)-3-(1-naphthalenylmethyl)-1H-pyrazolo[3,4-d]pyrimidin-4-amine], the “Detectable effect in WT mice” value on TrkB kinase is “does not have any detectable effect”. In addition, the “Duration of electrographic seizure, Post-Kindling Seizure #2” value in the assay with kindled TrkB^F616A mice [2] (1NMPP1 16.6 ug/g IP every 12 h, five treatments, plus 25 μM in drinking water, initiated immediately following Post-Kindling Seizure #1, n=16, vehicle 56.6±7.6 s, p<0.01, Final Kindled Sz 43.8±4.5 s) amounted to 29.2 ± 3.8 s. The “Duration of behavioral seizure, Post-Kindling Seizure #2” value in the assay with kindled TrkB^F616A mice [2] (1NMPP1 16.6 ug/g IP every 12 h, five treatments, plus drinking water, after Post-Kindling Seizure #1, vehicle 139.8±16.5 s, p<0.01) was determined as 63.5 ± 10 s. In addition, the “Behavioral seizure class of Post-Kindling Seizure #2” value in the assay with kindled TrkB^F616A mice [2] (1NMPP1 after Post-Kindling Seizure #1, versus vehicle) is reported as “nonsignificant trend toward reduction”. Further, the “Number of animals with subconvulsive (less than Class 4) Post-Kindling Sz #2” value with kindled TrkB^F616A mice [2] (1NMPP1 following Post-Kindling Sz #1, 33 animals received 1NMPP1 or pY816, controls 1 of 28) was 4. Besides, in the assay with kindled WT mice (Post-Kindling Sz #1 35.1±5.3 s), the “Duration of electrographic seizure, Post-Kindling Sz #2” value is 67.4 ± 13.5 s. The “Duration of behavioral seizure, Post-Kindling Sz #2” value in the assay on kindled WT mice (Post-Kindling Sz #1 72.4±10.2 s) was 107.6 ± 10.5 s. For the same compound, in the assay with kindled TrkB^F616A mice [3] (1NMPP1 for two days (IP and drinking water) six days after final kindled seizure), the “Duration of electrographic seizure versus vehicle” value is recorded as “No differences were detected”. Also, in the assay on kindled TrkB^F616A mice [3] (1NMPP1 for two days), the “Duration of behavioral seizure versus vehicle” value was “No differences were detected” and the “Seizure class versus vehicle” value is listed as “No differences were detected”.
